According to patent US20090062403A1, “Compositions and Methods for Treatment of Disorders of Protein Aggregation” (priority 2004, published 2009):
Entries after “also recorded” stand apart in the source; their conditions may differ. Like-named read-outs stand apart in the source and are kept apart here. Marks after values point to notes of the source that are not given here.

What was measured:
[1] = system: TgCRND8 mice; test: Morris Water Maze spatial reference memory test in TgCRND8 mice; assay type: in vivo, mouse; conditions: for Spatial learning performance (Morris Water Maze) compared to untreated TgCRND8 littermates: oral treatment for 28 days from 5 months of age, tested at 6 months
[2] = system: cerebral amyloid plaques; test: Cerebral amyloid burden (plaque number, area, size by immunohistochemistry); assay type: in vivo, mouse; conditions: TgCRND8 mice
Protocol: Mice. […] This initial dosage was chosen based upon the dosage of myo-cyclohexanehexol (6-18 grams/day/adult or 86-257 mg/Kg/day) that is typically administered to human patients for various psychiatric disorders. […] A cohort of animals (n=10 mice per treatment arm) entered the study at five months of age, and outcomes were then analyzed after one month of treatment. The body weight, coat characteristics and in cage behaviour were monitored. Mannitol was used as a negative control for potential alterations in caloric intake. All experiments were performed according to the Canadian Council on Animal Care guidelines. Behavioural tests: Morris Water Maze testing was performed as previously described. After non-spatial pre-training, mice underwent place discrimination training for 5 days with 4-trials per day, followed by a cued visible platform to rule out general motivational, learning deficits and motor problems, and a probe trial to evaluate memory. […] Open field test for motor activity was preformed as described previously. Duration of walking, pausing and grooming were analyzed as indices of spontaneous locomotor activity. Sensorimotor function was examined with an Economex™ accelerating rotarod (Columbus Instruments, Columbus, Ohio), as described elsewhere. The rod was set to accelerate at a rate of 0.2 r.p.m./s, from an initial, constant speed of 5 r.p.m. Latency to fall was recorded in four daily trials, conducted at 30 min intervals. All mice were trained for seven days before testing. The test day performance score for each animal was obtained by summing its latency to fall over the four trials Cerebral amyloid burden. Brains were removed and one hemisphere was fixed in 4% paraformaldehyde and embedded in paraffin wax in the mid sagittal plane. To generate sets of systematic uniform random sections, 5 μm serial sections were collected across the entire hemisphere. Sets of sections at 50 μm intervals were used for analyses (10-14 sections/set). Plaques were identified after antigen retrieval with formic acid, and incubation with primary anti-Aβ antibody (Dako M-0872), followed by secondary antibody (Dako StreptABCcomplex/horseradish kit). End products were visualized with DAB and were counter-stained with luxol fast blue. Amyloid plaque burden was assessed with LecoIA-3001 image analysis software interfaced with Leica microscope and Hitachi KP-M1U CCD video camera. Openlab imaging software (Improvision, Lexington, Mass.) was then used to convert micrographs to binary images for plaque number and plaque area determinations. Vascular amyloid burden was defined as amyloid originating from or surrounding blood vessels and was analysed similarly. Plasma and Cerebral Aβ Content. Hemi-brain samples were homogenized in a buffered sucrose solution, followed by either 0.4% diethylamine/100 mM NaCl for soluble Aβ levels or cold formic acid for the isolation of total Aβ. After neutralization, the samples were diluted and analyzed for Aβ40 and Aβ42 using commercially available kits (BIOSOURCE International). Each hemisphere was analyzed in triplicate and the mean values±SEM reported. Western blot analyses were performed on all fractions using urea gels for Aβ species analyses. Aβ was detected using 6E10 (BIOSOURCE International) and Enhanced Chemiluminenscence (Amersham). Gliosis Quantitation. Five randomly selected, evenly spaced, sagittal sections were collected from paraformaldehyde-fixed and frozen hemispheres of treated and control mice. Sections were immunolabelled for astrocytes with anti-rat GFAP IgG2, (Dako; diluted 1:50) and for microglia with anti-rat CD68 IgG2b (Dako; 1:50).

[3] = molecular target: T1, Aβ42 (Homo sapiens, UniProt P05067); test: Plasma Aβ42 levels in TgCRND8 mice; assay type: in vivo, mouse; conditions: TgCRND8 mice following 28 days of therapy at five months of age
T1 construct: from tissue; host or cells: hemi-brain homogenate of TgCRND8 transgenic mice

[4] = system: synaptophysin; test: Synaptophysin quantification in CA1 region of the hippocampus; assay type: in vivo, mouse; conditions: TgCRND8 mice; for increase of synaptophysin reactive boutons and cell bodies: vs untreated
Protocol: Synaptophysin immunohistochemical staining was performed on 3 evenly spaced saggital sections of paraformaldehyde-fixed treated and control mice. Sections were immunolabelled for synaptophysin with anti-synaptophysin IgG (1:40; Roche, Laval, PQ). Digital images were captured and analyzed as described above. Within each section, three randomly chosen 100 μm^2 areas of the CA1 region of the hippocampus were counted for synaptophysin reactive cell bodies and boutons. The results are expressed as the mean of the number of reactive bodies and boutons per 100 μm^2 [48, 49].

[5] = system: Aβ oligomers; test: IP/Western blot of Aβ oligomers in 7PA2 conditioned media; assay type: cell-based, human
Protocol: (§1) Preparation of conditioned media: CHO— or 7PA2 cells were grown to ˜90% confluency. The cells were washed 1× in serum-free DMEM, then incubated overnight (˜15 hrs) in 4 ml/10 cm dish in serum-free DMEM, pen/strep, 1-glutamine with/without AZD-103. The following day, the conditioned media (CM) was collected, spun at 1000×g and treated with complete protease inhibitors (in mg/ml 1 leupeptin, 1 pepstatin, 0.1 aprotinin, 40 EDTA, and 2 mM 1/10 phenantroline) for biochemistry experiments or cell culture compatible protease inhibitors (Sigma P1860 1:1000) for electrophysiology experiments. The CM was stored at −80° C. until sufficient volumes were collected to complete a “batch”—typically ˜300 ml. […] The resulting concentrate was pooled, aliquoted in 1 ml fractions, and stored at −80° C. […] Therefore, for any given set of experiments (i.e. dose response curve, time curve, etc), a single batch is prepared and compared to 7PA2 alone within that batch.
IP/Western blots: 8 ml of 7PA2 CM were precleared with […] of protein A agarose for 30 min. The beads were spun down, and […] of the polyclonal anti-Aβ antibody R1282 was added to the supernatant with an additional 40 μl of protein A agarose. These samples were nutated at 4° C. overnight. The beads were washed with a series of buffers 0.5 STEN (sodium chloride, tris, EDTA, NP-40), SDS STEN, STEN. 2× tricine sample buffer was added to the washed beads, which were then boiled, centrifuged, and the resulting supernatant loaded onto 10-20% tricine gels. The proteins were then transferred to nitrocellulose, and probed with the anti-Aβ antibody 6E10.
Target sequence in this assay (P05067 672-711 limits assumed): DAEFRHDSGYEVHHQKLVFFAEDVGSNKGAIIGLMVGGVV

[6] = system: Aβ oligomers; assay type: in vivo; conditions: rat
Text: The Aβ oligomers are naturally produced by cells transfected with genes that over-produce the amyloid precursor protein (APP). APP is cleaved by secretase(s) and the cells construct the oligomeric Aβ into molecules ranging from 2 to 12 amyloid proteins (2 mer to 12 mer) and secrete it into the culture medium (CM) of cultured cells. In addition, oligomeric Aβ is extracted from brain homogenate taken from transgenic mice (Tg2576) transfected with the Swedish APP mutation. […] These purified oligomeric forms of Aβ, at physiological concentrations relevant to those found in AD, are injected into the rat's lateral ventricle through an indwelling cannula while the animals are awake and moving. Two hours after injection the rats are tested under sensitive cognitive assay.
The assay, the Alternating Lever Cyclic Ratio (ALCR) test, has proven to be much more sensitive than previously published methods for measuring drug effects on cognitive function. In this task, rats must learn a complex sequence of lever-pressing requirements in order to earn food reinforcement in a two-lever experimental chamber. Subjects must alternate between two levers by switching to the other lever after pressing the first lever enough to get food reward. The exact number of presses required for each food reward changes, first increasing from 2 responses per food pellet up to 56 presses per food pellet, then decreasing back to 2 responses per pellet. Intermediate values are based on the quadratic function, x^2−x. One cycle is an entire ascending and descending sequence of these lever press requirements (e.g., 2, 6, 12, 20, 30, 42, 56, 56, 42, 30, 20, 12, 6, and 2 presses per food reward). Six such full cycles are presented during each daily session.
Oligomeric Aβ: Prepared from transfected Chinese Hamster Ovary Cells (7PA2 cells). These cells secrete oligomeric Aβ into the culture medium (CM) at physiological levels. Aβ oligomers was also derived from Tg2576 mouse brain and purified by size exclusion chromatography. Samples of oligomeric Aβ were characterized by Western Blot Analysis. Appropriate control compounds were produced and tested for each active Aβ oligomeric configuration. Rats: Forty (40) rats were trained under ALCR for approximately 3 months until their error rates are stable. Training sessions were conducted 5 days each week. Surgery: After training, all rats received a single 28 ga. cannula that was permanently affixed to the skull, and aimed at the lateral ventricle (divided equally between left and right). Rats were allowed 5 days to recover from surgery. Administration: In vivo administration of AZD103 to rats was performed by dissolving AZD103 into drinking water. Different concentrations were prepared, and the average daily water intake used to target specific average daily dose levels. These dose levels were therefore approximate. Testing: AZD 103 was tested against Aβ oligomers known to disrupt cognitive function. Two general procedures were incorporated. • 1. AZD 103 was incubated with the injectate medium containing Aβ oligomers prior to assessing it's affect on ALCR. Appropriate control injections were included un-incubated (untreated) Aβ oligomers as well as AZD 103 were injected ICV. • 2. Rats were treated with AZD 103, administered in drinking water, for at least 3-4 days prior to testing ICV injection of Aβ oligomers preparations known to affect cognitive function under ALCR.
Treatments were assessed in the following order: • 1. ICV 7PA2 CM alone • 2. ICV AZD 103 alone • 3. ICV ex vivo incubated 7PA2 CM with AZD 103 • All rats received treatments 1-3 in randomized order. • 4. ICV 7PA2 CM after 4 days treatment with PO AZD103 30 mg/kg/day. • 5. ICV 7PA2 CM after 4 days treatment with PO AZD103 100 mg/kg/day. • 6. ICV 7PA2 CM after 4 days treatment with PO AZD103 300 mg/kg/day. • 7. ICV 7PA2 CM after 4 days with no treatment. […]
Target sequence in this assay (P05067 672-711 limits assumed): as above

[7] = system: TgCRND8 mice; conditions: mouse, in vivo
Protocol: Mice. […] This initial dosage was chosen based upon the dosage of myo-cyclohexanehexol (6-18 grams/day/adult or 86-257 mg/Kg/day) that is typically administered to human patients for various psychiatric disorders. […] A cohort of animals (n=10 mice per treatment arm) entered the study at five months of age, and outcomes were then analyzed after one month of treatment. The body weight, coat characteristics and in cage behaviour were monitored. Mannitol was used as a negative control for potential alterations in caloric intake. All experiments were performed according to the Canadian Council on Animal Care guidelines. Behavioural tests: Morris Water Maze testing was performed as previously described. […] Duration of walking, pausing and grooming were analyzed as indices of spontaneous locomotor activity. […] Latency to fall was recorded in four daily trials, conducted at 30 min intervals. […] Amyloid plaque burden was assessed with LecoIA-3001 image analysis software interfaced with Leica microscope and Hitachi KP-M1U CCD video camera. […] Vascular amyloid burden was defined as amyloid originating from or surrounding blood vessels and was analysed similarly. […] After neutralization, the samples were diluted and analyzed for Aβ40 and Aβ42 using commercially available kits (BIOSOURCE International). Each hemisphere was analyzed in triplicate and the mean values±SEM reported. […] Gliosis Quantitation. […]

[8] = system: 7PA2 cells; assay type: cell-based, Chinese Hamster
Protocol: as §1

[9] = system: Aβ oligomers; conditions: rat, in vivo
Target sequence in this assay (P05067 672-711 limits assumed): as above

[10] = system: Aβ oligomers; conditions: positive control, previously shown; cited from earlier work
[11] = system: TgCRND8 mice; test: Pilot in vivo studies; parameters: species or system mouse; conditions: data not shown
Text: The TgCRND8 mice and non-transgenic littermates were assigned to sex- and age-matched cohorts that were then used to test the effectiveness of the cyclohexanehexol stereoisomers as a therapeutic (with treatment delayed until five months of age and continued for one month until six months of age). […] The endpoints were cognitive function, brain Aβ levels, and neuropathology. […] Over the course of these experiments, observers were unaware of genotype or treatment group.

[12] = molecular target: T2, Aβ (Homo sapiens, UniProt P05067); conditions: reference [16]; cited from earlier work
T2 construct: neurotoxic oligomeric/protofibrillar aggregates of amyloid β-peptide (Aβ)

[13] = 28 day course at 5 months of age, vs untreated
[14] = 28 days treatment, 6 months of age
[15] = 1.25 μM applied to 7PA2 CM (post-cond)
[16] = ICV AZD103 alone, % of baseline errors
[17] = ICV Aβ oligomers incubated ex vivo with AZD103, % of baseline errors
[18] = ICV oligomers after 4 days p.o. 30 mg/kg/day in drinking water
[19] = ICV oligomers after 4 days p.o. 100 mg/kg/day in drinking water
[20] = ICV oligomers after 4 days p.o. 300 mg/kg/day in drinking water

T2 sequence (P05067 672-713 limits assumed): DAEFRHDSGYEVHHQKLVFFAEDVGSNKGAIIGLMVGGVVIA
T1 sequence (P05067 672-713 limits assumed): as above

1,3,5/2,4,6-(scyllo-) cyclohexanehexol [Scyllo-cyclohexanehexol]
effects on cognition and pathology ([1]; TgCRND8 mice, administered for 2 months, ending at 7 months of age): Sustained effects both on cognition and pathology were observed
Spatial learning performance (Morris Water Maze) compared to untreated TgCRND8 littermates ([1]; TgCRND8 mice): significantly better behavioural performance compared to untreated TgCRND8 mice; also recorded: significantly better than untreated TgCRND8 littermates
% time in target quadrant (probe trial, alternate measure) ([1]; separate cohort of TgCRND8 mice, data not shown): not statistically different from non-Tg littermates
percent area of the brain covered by plaques, reduction [2, 13]: 14±0.5%
plaque number reduction [2, 13]: 13±0.3%
plaque size reduction [2, 13]: 16±0.4%
Mean Plaque Size [2, 14]: 336 ± 6* μm^2
Total Plaque Area [2, 14]: 420027 ± 14986* μm^2
Total Plaque Count [2, 14]: 1260 ± 27
Plasma Aβ42 levels [3]: 990 ± 73 pg/mL
number of synaptophysin reactive boutons and cell bodies in the CA1 region ([4]; delayed treatment study): 2625±124 /100 μm^2
increase of synaptophysin reactive boutons and cell bodies ([4]; delayed treatment study): 150%
number of synaptophysin reactive boutons and cell bodies in the CA1 region ([4]; prophylactic study group): 2384±232 /100 μm^2
increase of synaptophysin reactive boutons and cell bodies ([4]; prophylactic study group): 148%
Aβ dimer on Western blots [5, 15]: unaffected
Aβ trimer on Western blots [5, 15]: reduced the trimer
Aβ dimer and trimer levels measured absolutely and normalized to monomer ([5]; dose response, pre-cond and post-cond, all concentrations): appeared to reduce dimer and trimer levels
performance in ALCR when administered without oligomers ([6]; ICV AZD103 alone): no impact on performance
Perseveration % errors [6, 16]: 99%
Switching % errors [6, 16]: 99%
Perseveration % errors [6, 17]: 100%
Switching % errors [6, 17]: 95%
Perseveration % errors [6, 18]: 120%
Switching % errors [6, 18]: 109%
Perseveration % errors [6, 19]: 120%
Switching % errors [6, 19]: 100%
Perseveration % errors [6, 20]: 99%
Switching % errors [6, 20]: 109%
grooming or activity in the open field test [7]: no effect on grooming or activity
sensorimotor function (Rotarod), treated vs untreated TgCRND8 mice [7]: no difference
toxicity (7PA2 cells, APPs expression, LTP in CHO— conditions) [8]: No direct evidence of AZD-103 toxicity was observed
brain penetrance following oral dosing [9]: sufficiently brain penetrant

OC1C(O)C(O)C(O)C(O)C1O (stereo not drawn) [Epi-cyclohexanehexol, 1,2,3,4,5/6-(epi-) cyclohexanehexol, reference compound]
Spatial learning performance (Morris Water Maze) compared to untreated TgCRND8 littermates ([1]; TgCRND8 mice): not significantly different from that of untreated TgCRND8 littermates

Oc1cccc(Nc2ccc(Nc3cccc(O)c3)nn2)c1 [RS0406]
production of oligomers when added pre-cond [10]: reduces the production of oligomers

O[C@H]1[C@H](O)[C@@H](O)[C@H](O)[C@@H](O)[C@H]1O [myo-cyclohexanehexol, 1,2,3,5/4,6-(myo-)cyclohexanehexol]
benefit in pilot in vivo studies [11]: no significant benefit
effectiveness in prior in vitro studies [12]: only weakly effective
